Consider ten compounds from PubChem BioAssay (NCI).

The structures appear in SMILES notation.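 Protocol summary: plate cells (96-well), add compound at 5 concentrations, incubate 48 h, interpolate endpoints linearly. At the TGI there is no net growth.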 Where a SMILES comes first, the peptide text is derived from it.

Assay in all cases: growth of human tumour cells (NCI), 48 h
Assay [1] has as its system DU-145 prostate.
For assay [2], the system named is HCT-15 colon.
The subject of assay [3] is HOP-62 NSCLC.
The subject of assay [4] is HS 578T breast.
Assay [5] concerns KM12 colon.
Assay [6] relates to LOX IMVI melanoma.
Assay [7] has as its system MALME-3M melanoma.
The subject of assay [8] is MOLT-4 leukemia.
The subject of assay [9] is OVCAR-3 ovarian.
The test system of assay [10] is SF-295 CNS.
For assay [11], the system named is SF-539 CNS.
Assay [12] relates to SK-MEL-2 melanoma.
For assay [13], the system named is UACC-62 melanoma.
The test system of assay [14] is SNB-75 CNS.

`CCN(CC)c1ccc2cc(-c3nnc(-c4ccccc4O)o3)c(=O)oc2c1`: the TGI in assay [1] is 23.6 µM; in assay [2] it was 29.4 µM; in [3] it was 18.5 µM; in assay [4], 57.6 µM; in assay [5] it was 37.8 µM; in assay [6], 20.1 µM. Also, the TGI in assay [7] amounted to 33.6 µM; in assay [8], 25.9 µM; in assay [9], 21.1 µM; in assay [10], 29.7 µM; in assay [11] it was 22.4 µM; in assay [12] it was 30.2 µM. The same compound came in with a TGI in assay [13] of 23.4 µM.
As for `Cc1nn2c(C(=O)N/N=C/c3ccc([N+](=O)[O-])cc3)c(C)nc2s1`, the TGI in assay [1], in [2], in [3], in [4], in assay [5] and in assay [6] was greater than 100 µM each time. The TGI in [7], in [8], in assay [9], in assay [10], in [11] and in assay [14] was greater than 100 µM throughout. This compound also gave a TGI in assay [13] greater than 100 µM.
Turning to `COc1cc([C@@]23OC[C@@H]4[C@@H](OC[C@@H]42)c2cc4c(cc23)OCO4)cc(OC)c1OC`, the TGI in [1] is greater than 100 µM; in [2] it was greater than 100 µM; in [3] it was greater than 100 µM; in assay [4], 10.5 µM; in [5], greater than 100 µM; in assay [7] it was greater than 100 µM. Besides, the TGI was greater than 100 µM in assay [8]; greater than 100 µM in [10]; greater than 47.1 µM in [11]; 62.8 µM in [12]; greater than 100 µM in assay [14]; greater than 100 µM in assay [13].
`O=C1NC(N2CCCCC2)=N/C1=C\c1ccccc1O`: the TGI in assay [1], in [2], in assay [3], in assay [4], in [5] and in assay [6] was greater than 100 µM in each case. Also, the TGI in assay [7], in assay [8], in [9], in assay [10], in assay [11] and in [12] was greater than 100 µM throughout. The compound further registered a TGI in [14] greater than 100 µM.
For the compound `CC(C)CC(NC(=O)C(Cc1ccccc1)NC(=O)C(Cc1c[nH]c2ccccc12)NC(=O)CNC(=O)C(N)Cc1ccc(O)cc1)C(=O)O` (stereo unspecified) (H-YGWFL-OH; configuration not given here), the TGI in assay [1] is greater than 100 µM; in assay [2], greater than 100 µM; in assay [3], greater than 100 µM; in [4], greater than 100 µM; in assay [5] it was 57.4 µM; in assay [7], 72.3 µM. Also, the TGI in assay [8] was greater than 100 µM; in assay [9], 57 µM; in assay [10] it was 88.6 µM; in assay [11] it was 87 µM; in assay [12], greater than 100 µM; in assay [14], 93.9 µM. The compound further registered a TGI in [13] greater than 100 µM.
Consider `O=C(CC(=O)N1N=C(N(c2ccccc2)c2ccccc2)CC1c1ccccc1)Nc1ccc(Cl)cc1` (stereo unspecified), for which the TGI in assay [1], in assay [2], in [3], in assay [4], in [5] and in assay [8] was greater than 100 µM in each case. Besides, the TGI in assay [9], in [10], in assay [11], in [12], in assay [14] and in [13] was greater than 100 µM each time.
As for `CCOc1ccc(N=NS(=O)(=O)O)cc1`, the TGI in assay [1], in [2], in assay [3], in [4], in [5] and in assay [6] was greater than 100 µM in each case. Moreover, the TGI in assay [7], in assay [9], in assay [10], in assay [11], in assay [12] and in [14] was greater than 100 µM throughout. The TGI in assay [13] was greater than 100 µM.
As for `COc1ccc(/C=C2\Sc3nnc(CNc4ccc(Cl)cc4)n3N=C2c2cc(F)c(Cl)cc2Cl)cc1OC`, the TGI in assay [1], in [2], in [3], in [4], in [5] and in assay [6] was greater than 100 µM throughout. Besides, the TGI in assay [8], in assay [9], in [10], in assay [11] and in assay [12] was greater than 100 µM in each case.
For the compound `C(=N\OCCc1ccccc1)/c1cccnc1`, the TGI in assay [1], in assay [2], in [3], in assay [4], in [5] and in assay [7] was greater than 100 µM throughout. Also, the TGI in [8], in assay [9], in assay [10], in [11], in [12] and in assay [14] was greater than 100 µM each time. In assay [13], the TGI was greater than 100 µM.
In the case of `COC(=O)C1=C(C(=O)OC)SC(=C2S[C@@H]3[C@@H]4C[C@H]([C@@H]3S2)[C@H]2C(=O)OC(=O)[C@@H]42)S1`, the TGI in [1], in assay [2], in assay [3], in assay [4], in assay [5] and in [6] was greater than 100 µM in each case. In addition, the TGI in [7], in assay [8], in assay [9], in assay [10], in assay [11] and in assay [12] was greater than 100 µM in each case. Further, in assay [13], the TGI was greater than 100 µM.
